Target: CXCR3 (Macaca fascicularis, UniProt A0A2K5UV19)
Assay: functional cellular assay measuring calcium flux in CXCR3 transfected cells (block of CXCR3/IP-10 interaction)
Format: cell-based
Settings: IP-10 induced intracellular calcium flux; Cyno-CHO cells stably expressing recombinant CXCR3 and G-alpha-16
Protocol: Compounds are assessed for the ability to block the interaction of CXCR3 and IP-10 in a functional cellular assay measuring calcium flux in CXCR3 transfected cells.
Cyno-CHO cells, stably expressing recombinant CXCR3 and G-alpha-16 are grown in F12 medium (Mediatech #45000-360) supplemented with 10% (V/V) FBS (Mediatech #35-01500), 1% Geneticin (Invitrogen #10131-027) and 0.2% Zeocin (Invitrogen #R250-05). The cells are spun down and re-suspended in growth media to a concentration of 4.8 E5 cells/mL. 25 microL of cell suspension is added to each well of a BD-384-well TC treated plate, providing 12,000 cells/well. The plate is incubated at 37° C./5% CO2 overnight. On the day of the assay, the plates are removed, the media is flicked out and 25 microL of Ca-4 dye in assay buffer (HBSS, 10 mM HEPES ph 7.4), containing 2 mM probenacid is added to each well. The cell assay plates are then incubated at 37° C./5% CO2 for one hour.
Test compounds are dissolved in DMSO and diluted to 1.045 mM in DMSO. Just prior to assay, 2.75 microL of appropriately diluted test compound are added to each well of a 384 well plate containing 45 microL of HBSS buffer. After mixing, 5 microL of diluted compound are added to each well of the cell assay plate for a final assay concentration of 10 microM. The plate is incubated at room temperature for 15 min. 10 microL of IP-10 stock solution in HBSS (4× EC80 concentration) are added to each well of the cell assay plate except those cells reserved as blank wells containing buffer only. Intracellular calcium flux is recorded on the HAMAMTSU FDSS6000, using excitation at 480 nm and emission at 540 nm. Data are analyzed using Activity Base software.
In general, the preferred potency range (IC50) of compounds in the above assay is between 1 nM to 3 μM, and the most preferred potency range is 1 nM to 20 nM.

CXCR3, sequence (A0A2K5UV19 entry or part of it): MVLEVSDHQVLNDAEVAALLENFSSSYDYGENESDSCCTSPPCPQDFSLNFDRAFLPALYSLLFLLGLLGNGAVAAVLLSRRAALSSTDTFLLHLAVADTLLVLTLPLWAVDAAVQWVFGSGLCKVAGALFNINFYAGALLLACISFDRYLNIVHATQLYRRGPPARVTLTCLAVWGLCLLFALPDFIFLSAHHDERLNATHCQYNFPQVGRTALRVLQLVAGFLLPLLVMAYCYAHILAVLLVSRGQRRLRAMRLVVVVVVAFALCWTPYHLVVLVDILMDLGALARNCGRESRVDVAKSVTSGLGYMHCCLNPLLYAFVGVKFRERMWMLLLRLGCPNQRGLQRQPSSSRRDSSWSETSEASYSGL

Row | SMILES | IC50
1 | Cc1nn(CC(=O)N2CCN(c3ncc(Cl)cc3NC(=O)c3cccc(C(F)(F)F)c3)CC2)c(C)c1Cl | 7.2 nM
2 | Cc1cc(C(=O)NCC(=O)N2CCN(c3ccccc3C(=O)Nc3cccnc3)CC2)nn1C [1,5-Dimethyl-1H-pyrazole-3-carboxylic acid (2-oxo-2-{4-[2-(pyridin-3-ylcarbamoyl)-phenyl]-piperazin-1-yl}-ethyl)-amide] | 20 nM
3 | Cn1cccc1C(=O)NCC(=O)N1CCN(c2ccccc2C(=O)Nc2cccnc2)CC1 [1-Methyl-1H-pyrrole-2-carboxylic acid (2-oxo-2-{4-[2-(pyridin-3-ylcarbamoyl)-phenyl]-piperazin-1-yl}-ethyl)-amide] | 12 nM
4 | COc1cccc(C(=O)NCC(=O)N2CCN(c3ccccc3C(=O)Nc3cccnc3)CC2)c1OC [2,3-Dimethoxy-N-(2-oxo-2-{4-[2-(pyridin-3-ylcarbamoyl)-phenyl]-piperazin-1-yl}-ethyl)-benzamide] | 12.5 nM
5 | COc1cccc(C(=O)N(C)CC(=O)N2CCN(c3ccccc3C(=O)Nc3ccncc3)CC2)c1OC [2,3-Dimethoxy-N-methyl-N-(2-oxo-2-{4-[2-(pyridin-4-ylcarbamoyl)-phenyl]-piperazin-1-yl}-ethyl)-benzamide] | 15 nM
6 | Cc1nc(C)c(C(=O)NCC(=O)N2CCN(c3ccccc3C(=O)Nc3cccnc3)CC2)s1 [2,4-Dimethyl-thiazole-5-carboxylic acid (2-oxo-2-{4-[2-(pyridin-3-ylcarbamoyl)-phenyl]-piperazin-1-yl}-ethyl)-amide] | 13.9 nM
7 | CCn1nc(C)cc1C(=O)NCC(=O)N1CCN(c2ccccc2C(=O)Nc2cccnc2)CC1 [2-Ethyl-5-methyl-2H-pyrazole-3-carboxylic acid (2-oxo-2-{4-[2-(pyridin-3-ylcarbamoyl)-phenyl]-piperazin-1-yl}-ethyl)-amide] | 18 nM
8 | O=C(Nc1ccncc1)c1ccccc1N1CCN(C(=O)Cc2n[nH]c3ccccc23)CC1 [2-[4-(2-1H-Indazol-3-yl-acetyl)-piperazin-1-yl]-N-pyridin-4-yl-benzamide] | 7.2 nM
9 | CS(=O)(=O)c1ccc(NC(=O)c2ccccc2N2CCN(C(=O)CN3CCc4cccnc43)CC2)cc1 [2-[4-(2-2,3-Dihydro-pyrrolo[2,3-b]pyridin-1-yl-acetyl)-piperazin-1-yl]-N-(4-methanesulfonyl-phenyl)-benzamide] | 9.7 nM
10 | O=C(Nc1cccnc1)c1ccccc1N1CCN(C(=O)CN2CCc3cccnc32)CC1 [2-[4-(2-2,3-Dihydro-pyrrolo[2,3-b]pyridin-1-yl-acetyl)-piperazin-1-yl]-N-pyridin-3-yl-benzamide] | 10 nM
11 | O=C(Nc1ccncc1)c1ccccc1N1CCN(C(=O)CN2CCc3cccnc32)CC1 [2-[4-(2-2,3-Dihydro-pyrrolo[2,3-b]pyridin-1-yl-acetyl)-piperazin-1-yl]-N-pyridin-4-yl-benzamide] | 9 nM
12 | O=C(Nc1ccncc1)c1ccccc1N1CCN(C(=O)Cc2coc3ccccc23)CC1 [2-[4-(2-Benzofuran-3-yl-acetyl)-piperazin-1-yl]-N-pyridin-4-yl-benzamide] | 10.3 nM
13 | O=C(NCC(=O)N1CCN(c2ccccc2C(=O)Nc2cccnc2)CC1)c1ccccc1 [2-[4-(2-Benzoylamino-acetyl)-piperazin-1-yl]-N-pyridin-3-yl-benzamide] | 7.6 nM
14 | O=C(Nc1ccncc1)c1ccccc1N1CCN(C(=O)Cc2cn3ccccc3n2)CC1 [2-[4-(2-Imidazo[1,2-a]pyridin-2-yl-acetyl)-piperazin-1-yl]-N-pyridin-4-yl-benzamide] | 16 nM
15 | O=C(Nc1ccncc1)c1ccccc1N1CCN(C(=O)CNc2ccccc2)CC1 [2-[4-(2-Phenylamino-acetyl)-piperazin-1-yl]-N-pyridin-4-yl-benzamide] | 19 nM
16 | O=C(Nc1cnc2ccccc2c1)c1ccccc1N1CCN(C(=O)Cn2ccc3cccnc32)CC1 [2-[4-(2-Pyrrolo[2,3-b]pyridin-1-yl-acetyl)-piperazin-1-yl]-N-quinolin-3-yl-benzamide] | 8.4 nM
17 | Cc1nc(C)c(CC(=O)N2CCN(c3ccccc3C(=O)Nc3ccncc3)CC2)s1 [2-{4-[2-(2,4-Dimethyl-thiazol-5-yl)-acetyl]-piperazin-1-yl}-N-pyridin-4-yl-benzamide] | 13 nM
18 | Cc1nc(CC(=O)N2CCN(c3ccccc3C(=O)Nc3ccncc3)CC2)c(C)s1 [2-{4-[2-(2,5-Dimethyl-thiazol-4-yl)-acetyl]-piperazin-1-yl}-N-pyridin-4-yl-benzamide] | 7 nM
19 | Cc1nc2ccccc2c(=O)n1CC(=O)N1CCN(c2ccccc2C(=O)Nc2ccncc2)CC1 [2-{4-[2-(2-Methyl-4-oxo-4H-quinazolin-3-yl)-acetyl]-piperazin-1-yl}-N-pyridin-4-yl-benzamide] | 8.6 nM
20 | O=C(Nc1ccnc(C(F)(F)F)c1)c1ccccc1N1CCN(C(=O)CN2CCCCC2=O)CC1 [2-{4-[2-(2-Oxo-piperidin-1-yl)-acetyl]-piperazin-1-yl}-N-(2-trifluoromethyl-pyridin-4-yl)-benzamide] | 11 nM
21 | O=C(Nc1ccnc(OCC(F)(F)F)c1)c1ccccc1N1CCN(C(=O)CN2CCCCC2=O)CC1 [2-{4-[2-(2-Oxo-piperidin-1-yl)-acetyl]-piperazin-1-yl}-N-[2-(2,2,2-trifluoro-ethoxy)-pyridin-4-yl]-benzamide] | 7.8 nM
22 | O=C(Nc1ccncc1)c1ccccc1N1CCN(C(=O)CN2CCCCC2=O)CC1 [2-{4-[2-(2-Oxo-piperidin-1-yl)-acetyl]-piperazin-1-yl}-N-pyridin-4-yl-benzamide] | 7.4 nM
23 | Cc1nn(-c2ccccc2)c(C)c1CC(=O)N1CCN(c2ccccc2C(=O)Nc2ccncc2)CC1 [2-{4-[2-(3,5-Dimethyl-1-phenyl-1H-pyrazol-4-yl)-acetyl]-piperazin-1-yl}-N-pyridin-4-yl-benzamide] | 16 nM
24 | COc1cc(NC(=O)c2cc(F)ccc2N2CCN(C(=O)Cn3nc(C)cc3C)CC2)ccn1 [2-{4-[2-(3,5-Dimethyl-pyrazol-1-yl)-acetyl]-piperazin-1-yl}-5-fluoro-N-(2-methoxy-pyridin-4-yl)-benzamide] | 9.7 nM

Continued by falling IC50, values first:

Row | IC50 | SMILES
25 | 6.9 nM | O=C(Nc1ccc(C(F)(F)F)nc1)c1ccccc1N1CCN(C(=O)Cn2ccc3cccnc32)CC1 [2-[4-(2-Pyrrolo[2,3-b]pyridin-1-yl-acetyl)-piperazin-1-yl]-N-(6-trifluoromethyl-pyridin-3-yl)-benzamide]
26 | 6.6 nM | O=C(Nc1ccncc1)c1ccccc1N1CCN(C(=O)Cc2noc3ccccc23)CC1 [2-[4-(2-Benzo[d]isoxazol-3-yl-acetyl)-piperazin-1-yl]-N-pyridin-4-yl-benzamide]
27 | 6.5 nM | CN(CC(=O)N1CCN(c2ccccc2C(=O)Nc2ccncc2)CC1)C(=O)c1cccn1C [1-Methyl-1H-pyrrole-2-carboxylic acid methyl-(2-oxo-2-{4-[2-(pyridin-4-ylcarbamoyl)-phenyl]-piperazin-1-yl}-ethyl)-amide]
28 | 6.1 nM | O=C(Nc1ccncc1)c1ccccc1N1CCN(C(=O)CN2C(=O)c3ccccc3C2=O)CC1 [2-{4-[2-(1,3-Dioxo-1,3-dihydro-isoindol-2-yl)-acetyl]-piperazin-1-yl}-N-pyridin-4-yl-benzamide]
29 | 6.1 nM | O=C(Nc1ccncc1)c1ccccc1N1CCN(C(=O)Cn2ncc3ccccc3c2=O)CC1 [2-{4-[2-(1-Oxo-1H-phthalazin-2-yl)-acetyl]-piperazin-1-yl}-N-pyridin-4-yl-benzamide]
30 | 5.4 nM | Cc1cc(C(=O)NCC(=O)N2CCN(c3ccccc3C(=O)Nc3ccncc3)CC2)n(C)n1 [2,5-Dimethyl-2H-pyrazole-3-carboxylic acid (2-oxo-2-{4-[2-(pyridin-4-ylcarbamoyl)-phenyl]-piperazin-1-yl}-ethyl)-amide]
31 | 5.1 nM | O=C(Nc1ccncc1)c1ccccc1N1CCN(C(=O)CN2Cc3ccccc3C2=O)CC1 [2-{4-[2-(1-Oxo-1,3-dihydro-isoindol-2-yl)-acetyl]-piperazin-1-yl}-N-pyridin-4-yl-benzamide]
32 | 5 nM | Cc1cn(CC(=O)N2CCN(c3ccccc3C(=O)Nc3ccccc3)CC2)c(C)n1 [2-{4-[2-(2,4-Dimethyl-imidazol-1-yl)-acetyl]-piperazin-1-yl}-N-phenyl-benzamide]
33 | 4.2 nM | Cn1cccc1C(=O)NCC(=O)N1CCN(c2ccccc2C(=O)Nc2ccncc2)CC1 [1-Methyl-1H-pyrrole-2-carboxylic acid (2-oxo-2-{4-[2-(pyridin-4-ylcarbamoyl)-phenyl]-piperazin-1-yl}-ethyl)-amide]
34 | 3.7 nM | COc1cccc(C(=O)NCC(=O)N2CCN(c3ccccc3C(=O)Nc3ccncc3)CC2)c1OC [2,3-Dimethoxy-N-(2-oxo-2-{4-[2-(pyridin-4-ylcarbamoyl)-phenyl]-piperazin-1-yl}-ethyl)-benzamide]
35 | 3 nM | O=C(Nc1ccc(C(F)(F)F)nc1)c1ccccc1N1CCN(C(=O)CN2CCCCC2=O)CC1 [2-{4-[2-(2-Oxo-piperidin-1-yl)-acetyl]-piperazin-1-yl}-N-(6-trifluoromethyl-pyridin-3-yl)-benzamide]

Source: patent US8362249B2, “CXCR3 receptor antagonists” (Boehringer Ingelheim International GmbH, priority 2009, dated 2013)
